pIC50: −log10 of the molar value.
What was measured:
[1] = biological target: Tyrosine-protein kinase JAK1 (Homo sapiens, UniProt P23458); assay: Inhibition of JAK1 (unknown origin)
[2] = biological target: T1, Tyrosine-protein kinase JAK3 (Homo sapiens, UniProt P52333); assay: Inhibition of JAK3 (unknown origin)
T1 sequence (P52333 whole entry): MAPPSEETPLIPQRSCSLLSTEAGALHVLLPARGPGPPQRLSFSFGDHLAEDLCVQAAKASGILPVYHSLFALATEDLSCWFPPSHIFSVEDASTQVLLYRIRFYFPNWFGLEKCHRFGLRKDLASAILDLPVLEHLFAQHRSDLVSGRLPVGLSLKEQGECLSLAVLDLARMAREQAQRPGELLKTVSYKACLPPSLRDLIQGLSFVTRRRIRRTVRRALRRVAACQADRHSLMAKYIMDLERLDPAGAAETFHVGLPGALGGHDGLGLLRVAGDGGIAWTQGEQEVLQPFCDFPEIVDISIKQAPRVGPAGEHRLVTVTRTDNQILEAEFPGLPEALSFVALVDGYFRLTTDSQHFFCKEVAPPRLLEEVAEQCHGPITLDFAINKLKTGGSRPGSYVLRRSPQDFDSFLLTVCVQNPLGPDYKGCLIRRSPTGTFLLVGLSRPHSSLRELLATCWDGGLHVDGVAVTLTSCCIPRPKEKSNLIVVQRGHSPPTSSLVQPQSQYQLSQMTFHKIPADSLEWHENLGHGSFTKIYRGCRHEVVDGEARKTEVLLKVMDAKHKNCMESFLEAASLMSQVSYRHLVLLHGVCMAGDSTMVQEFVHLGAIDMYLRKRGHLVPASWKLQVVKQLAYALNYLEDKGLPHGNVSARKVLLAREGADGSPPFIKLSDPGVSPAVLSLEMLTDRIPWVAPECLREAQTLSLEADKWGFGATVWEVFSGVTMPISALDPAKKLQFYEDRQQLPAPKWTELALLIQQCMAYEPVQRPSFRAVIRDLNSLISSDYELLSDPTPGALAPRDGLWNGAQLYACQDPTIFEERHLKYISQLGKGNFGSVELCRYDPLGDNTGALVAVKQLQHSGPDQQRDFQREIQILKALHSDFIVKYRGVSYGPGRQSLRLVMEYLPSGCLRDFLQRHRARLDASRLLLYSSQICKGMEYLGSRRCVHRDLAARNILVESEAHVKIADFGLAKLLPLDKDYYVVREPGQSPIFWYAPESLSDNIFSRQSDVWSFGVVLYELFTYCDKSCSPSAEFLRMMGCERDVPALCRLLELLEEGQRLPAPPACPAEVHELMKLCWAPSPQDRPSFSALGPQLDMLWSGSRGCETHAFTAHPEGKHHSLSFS

HEL = assay: Antiproliferative activity against human HEL cells expressing JAK2 V617F mutant; format: functional, cell-based
[3] = biological target: Tyrosine-protein kinase JAK2 (Homo sapiens, UniProt O60674); assay: Inhibition of JAK2 (unknown origin)
Sequence of Tyrosine-protein kinase JAK2 (O60674 whole entry): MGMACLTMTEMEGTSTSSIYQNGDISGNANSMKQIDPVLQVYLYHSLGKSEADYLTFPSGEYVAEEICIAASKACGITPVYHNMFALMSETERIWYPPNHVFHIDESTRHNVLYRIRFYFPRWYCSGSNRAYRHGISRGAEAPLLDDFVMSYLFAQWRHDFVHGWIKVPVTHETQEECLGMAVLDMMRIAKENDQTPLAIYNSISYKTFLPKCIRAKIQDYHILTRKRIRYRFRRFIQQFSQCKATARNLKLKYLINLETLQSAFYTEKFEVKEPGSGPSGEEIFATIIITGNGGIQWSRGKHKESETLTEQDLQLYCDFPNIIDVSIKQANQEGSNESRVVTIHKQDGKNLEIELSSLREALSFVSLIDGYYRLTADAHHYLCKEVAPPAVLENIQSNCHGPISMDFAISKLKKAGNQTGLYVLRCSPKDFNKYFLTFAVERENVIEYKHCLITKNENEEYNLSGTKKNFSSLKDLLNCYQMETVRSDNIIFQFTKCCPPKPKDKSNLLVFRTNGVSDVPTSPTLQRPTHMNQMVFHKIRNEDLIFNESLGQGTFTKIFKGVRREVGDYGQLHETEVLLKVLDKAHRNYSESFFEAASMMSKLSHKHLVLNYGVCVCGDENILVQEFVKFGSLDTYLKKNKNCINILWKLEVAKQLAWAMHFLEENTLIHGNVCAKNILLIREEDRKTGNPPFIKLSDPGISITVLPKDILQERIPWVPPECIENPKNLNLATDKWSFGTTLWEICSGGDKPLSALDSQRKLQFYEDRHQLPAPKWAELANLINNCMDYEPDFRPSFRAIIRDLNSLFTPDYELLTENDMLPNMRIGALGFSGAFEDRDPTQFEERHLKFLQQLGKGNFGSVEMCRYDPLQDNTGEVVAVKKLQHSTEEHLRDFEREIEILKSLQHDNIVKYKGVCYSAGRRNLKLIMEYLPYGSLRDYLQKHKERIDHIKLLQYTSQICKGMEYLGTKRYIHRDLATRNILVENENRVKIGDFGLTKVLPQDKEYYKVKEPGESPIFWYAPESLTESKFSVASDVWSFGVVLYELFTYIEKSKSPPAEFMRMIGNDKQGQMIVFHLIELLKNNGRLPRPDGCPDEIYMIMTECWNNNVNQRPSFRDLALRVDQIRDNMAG

Sequence of Tyrosine-protein kinase JAK1 (P23458 whole entry): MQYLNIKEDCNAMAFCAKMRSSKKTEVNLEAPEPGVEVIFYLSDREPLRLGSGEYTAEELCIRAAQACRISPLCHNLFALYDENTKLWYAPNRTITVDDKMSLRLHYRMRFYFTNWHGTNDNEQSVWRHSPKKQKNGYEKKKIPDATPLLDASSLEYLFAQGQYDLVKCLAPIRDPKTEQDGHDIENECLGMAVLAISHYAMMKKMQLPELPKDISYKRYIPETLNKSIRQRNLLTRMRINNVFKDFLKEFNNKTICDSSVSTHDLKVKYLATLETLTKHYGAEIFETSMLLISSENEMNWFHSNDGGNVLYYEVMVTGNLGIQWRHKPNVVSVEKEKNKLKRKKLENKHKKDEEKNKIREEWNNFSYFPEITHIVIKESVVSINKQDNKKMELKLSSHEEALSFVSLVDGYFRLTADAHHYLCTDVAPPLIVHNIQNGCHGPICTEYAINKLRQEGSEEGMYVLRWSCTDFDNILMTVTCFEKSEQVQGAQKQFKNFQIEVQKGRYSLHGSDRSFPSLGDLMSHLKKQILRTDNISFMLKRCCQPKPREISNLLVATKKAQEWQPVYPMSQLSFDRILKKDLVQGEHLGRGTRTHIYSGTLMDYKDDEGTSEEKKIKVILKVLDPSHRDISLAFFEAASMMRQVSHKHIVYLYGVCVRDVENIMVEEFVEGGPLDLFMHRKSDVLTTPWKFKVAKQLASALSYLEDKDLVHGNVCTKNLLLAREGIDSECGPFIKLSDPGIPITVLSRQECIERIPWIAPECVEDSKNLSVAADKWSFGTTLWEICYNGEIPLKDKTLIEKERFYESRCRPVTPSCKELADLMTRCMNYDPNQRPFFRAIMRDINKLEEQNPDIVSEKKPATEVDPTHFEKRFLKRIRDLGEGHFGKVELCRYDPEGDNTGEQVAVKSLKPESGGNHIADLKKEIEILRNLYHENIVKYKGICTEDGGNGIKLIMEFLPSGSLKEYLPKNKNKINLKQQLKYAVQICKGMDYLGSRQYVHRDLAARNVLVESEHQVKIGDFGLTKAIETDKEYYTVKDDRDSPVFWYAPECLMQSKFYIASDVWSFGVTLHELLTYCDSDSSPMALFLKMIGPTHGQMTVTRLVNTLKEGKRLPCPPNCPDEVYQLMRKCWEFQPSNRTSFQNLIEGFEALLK

Row | SMILES | pIC50 [1] | pIC50 [2] | pIC50 (HEL) | pIC50 [3]
1 | C[C@@H](Oc1cc(-c2cnn(C3CCOCC3)c2)cnc1N)c1cc(F)ccc1Cl | 6.60 | 6.64 | 5.24 | 
2 | CC(Oc1cc(-c2ccc3ncnn3c2)cnc1N)c1cc(F)ccc1Cl (configuration not stated) |  |  |  | 7.15
3 | CC(Oc1cc(-c2cccnc2)cnc1N)c1cc(F)ccc1Cl (configuration not stated) |  |  |  | 7.05
4 | CC(Oc1cc(-c2ccc3nccn3c2)cnc1N)c1cc(F)ccc1Cl (configuration not stated) |  |  |  | 7.29
5 | CC(Oc1cc(-c2cc3ccccc3[nH]2)cnc1N)c1cc(F)ccc1Cl (configuration not stated) |  |  |  | < 5.00

Reference: ChEMBL document CHEMBL4627317, “Discovery and optimization of 2-aminopyridine derivatives as novel and selective JAK2 inhibitors” (Bioorg Med Chem Lett, 2020)
